In patent US8394859B2, “Combretastatin analogs with tubulin binding activity” (Baylor University, priority 2005, dated 2013):
≈ marks a conversion by molar mass, not a printed value.

Key:
purified tubulin = assay: In vitro inhibition of tubulin polymerization; type: biochemical; conditions: purified bovine brain tubulin 1.5 mg/ml, preincubated 15 minutes at 37° C., GTP-induced, 350 nm
Method: IC50 values for tubulin polymerization were determined according to a previously described procedure (Bai et al., Cancer Research, 1996) and are summarized in Table 3 below. Purified tubulin is obtained from bovine brain cells as previously described (Hamel and Lin, Biochemistry, 1984). Various amounts of inhibitor were preincubated for 15 minutes at 37° C. with purified tubulin. After the incubation period, the reaction was cooled and GTP was added to induce tubulin polymerization. Polymerization was then monitored in a Gilford spectrophotometer at 350 nm. The final reaction mixtures (0.25 ml) contained 1.5 mg/ml tubulin, 0.6 mg/ml microtubule-associated proteins (MAPs), 0.5 mM GTP, […], 4% DMSO and 0.1M 4-morpholineethanesulfonate buffer (MES, pH 6.4). IC50 is the amount of inhibitor needed to inhibit tubulin polymerization 50% with respect to the amount of […] that occurs in the absence of inhibitor.

SF-268 = assay: In vitro growth inhibition, SRB assay, CNS SF-268; type: cell-based; conditions: Homo sapiens, CNS SF-268, 48 hours incubation, read-out: GI50 (μM/mL) for Cell Line SF-268
Method: (§1) Newly prepared compounds were evaluated for cytotoxic activity against a variety of cell lines derived from human tumors using an assay system similar to the National Cancer Institute procedure previously described (Monks et al., J. Natl. Cancer Inst., 1991). Briefly, the cell suspensions, diluted according to the particular cell type and the expected target cell density (5,000-40,000 cells per well based on cell growth characteristics), were added by pipet (100 ul) to 96-well microtiter plates. Inoculates were allowed a preincubation time of 24-28 hours at 37 C for stabilization. Incubation with the inhibitor compounds lasted for 48 hours in 5% CO2 atmosphere and 100% humidity. Determination of cell growth was performed by in situ fixation of cells, followed by staining with a protein-binding dye sulforhodamine B (SRB), which binds to the basic amino acids of cellular macromolecules. The solubilized stain was measured spectrophotometrically.
(§2) Several compounds were evaluated for cytotoxic activity against […] P388 leukemia cell lines. The effective dose or ED50 value (defined as the effective dosage required for inhibition of 50% of cell growth) was measured. These and additional compounds were evaluated in terms of growth inhibitory activity against several other human cancer cell lines including: central nervous system (“CNS”, SF-268), pancreas (BXPC-3), non-small cell lung cancer (“lung-NSC”, NCI-H460), breast (MCF-7), colon (KM20L2), ovarian (OVCAR-3), and prostate (DU-145). The growth inhibition GI50 (defined as the dosage required for inhibition of tumor cell growth by 50%) is listed for each cell line.

DU-145 = assay: In vitro growth inhibition, SRB assay, prostate DU-145; type: cell-based; conditions: Homo sapiens, prostate DU-145, 48 hours incubation, read-out: GI50 (μM/mL) for Cell Line DU-145
Method: as §1, §2

MCF-7 = assay: In vitro growth inhibition, SRB assay, breast MCF-7; type: cell-based; conditions: Homo sapiens, MCF7, breast MCF-7, 48 hours incubation, read-out: GI50 (μM/mL) for Cell Line MCF-7
Method: as §1, §2

NCI-H460 = assay: In vitro growth inhibition, SRB assay, lung-NSC NCI-H460; type: cell-based; conditions: Homo sapiens, lung-NSC NCI-H460, 48 hours incubation, read-out: GI50 (μM/mL) for Cell Line NCI-H460
Method: as §1, §2

BXPC-3 = assay: In vitro growth inhibition, SRB assay, pancreas BXPC-3; type: cell-based; conditions: Homo sapiens, 48 hours incubation, read-out: GI50 (μM/mL) for Cell Line BXP-3
Method: as §1, §2

KM20L2 = assay: In vitro growth inhibition, SRB assay, colon KM20L2; type: cell-based; conditions: Homo sapiens, KM-20L2, colon KM20L2, 48 hours incubation, read-out: GI50 (μM/mL) for Cell Line KM20L2
Method: as §1, §2

SMILES | IC50 (purified tubulin) [µM] | GI50 (SF-268) [µg/mL] | GI50 (DU-145) [µg/mL] | GI50 (MCF-7) [µg/mL] | GI50 (NCI-H460) [µg/mL] | GI50 (BXPC-3) [µg/mL] | GI50 (KM20L2) [µg/mL]
COc1ccc2c(c1O)CCCC(c1cc(OC)c(OC)c(OC)c1)=C2 [Compound 3, 2-Methoxy-6-(3,4,5-trimethoxy-phenyl)-8,9-dihydro-7H-benzocyclohepten-1-ol] | ~40 | – | – | – | – | – | –
COc1ccc2c(c1)CCCC(c1cc(OC)c(OC)c(OC)c1)=C2 [Compound 1, 3-Methoxy-8-(3,4,5-trimethoxy-phenyl)-6,7-dihydro-5H-benzocycloheptene] | ~40 | 0.28 (≈ 0.823 µM) | 0.33 (≈ 0.969 µM) | 0.32 (≈ 0.94 µM) | 0.23 (≈ 0.676 µM) | 0.4 (≈ 1.18 µM) | 0.2 (≈ 0.588 µM)
COc1ccc(C(=O)C2=CCCCc3c2cc(OC)c(OC)c3OC)c(O)c1O [Compound 23, (2,3-Dihydroxy-4-methoxy-phenyl)-(1,2,3-trimethoxy-8,9-dihydro-7H-benzocyclohepten-5-yl)-methanone] | ~40 | 0.009 (≈ 0.0225 µM) | 0.026 (≈ 0.0649 µM) | 0.0059 (≈ 0.0147 µM) | 0.023 (≈ 0.0574 µM) | 0.017 (≈ 0.0425 µM) | 0.031 (≈ 0.0774 µM)
COc1ccc2c(c1)CCCC=C2c1cc(OC)c(OC)c(OC)c1 [Compound 2, 3-Methoxy-9-(3,4,5-trimethoxy-phenyl)-6,7-dihydro-5H-benzocycloheptene] | 1.4 ± 0.2 | > 10 | > 10 | > 10 | > 10 | > 10 | > 10
COc1ccc(C(=O)C2=CCCCc3c2cc(OC)c(OC)c3OC)cc1O [Compound 24, (3-Hydroxy-4-methoxy-phenyl)-(1,2,3-trimethoxy-8,9-dihydro-7H-benzocyclohepten-5-yl)-methanone] | ~40 | – | – | – | – | – | –
